Experimental data published in ChEMBL document CHEMBL1201862, “PubChem BioAssay data set” (2004).
The source made the active and inactive calls.

Tests used:
Bcl-2-like protein 10 = molecular target: T1, Bcl-2-like protein 10 (Homo sapiens, UniProt Q9HD36); experiment: displacers of TR3 peptide from Bcl-B, primary screen, selectivity assay for Bfl-1 inhibitor project, biochemical, fluorescence polarization, FITC-TR3 peptide (AID 748);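 also: fluorescence polarization from a fluorescein-labelled TR3 peptide binding purified Bcl-B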
T1 sequence (Q9HD36 whole entry): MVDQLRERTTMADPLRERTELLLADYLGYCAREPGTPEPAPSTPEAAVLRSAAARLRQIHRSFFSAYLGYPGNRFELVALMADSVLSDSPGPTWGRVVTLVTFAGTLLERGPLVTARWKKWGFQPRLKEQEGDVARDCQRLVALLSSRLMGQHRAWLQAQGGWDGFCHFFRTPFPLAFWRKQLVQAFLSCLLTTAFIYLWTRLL

Prothrombin = Prothrombin (Homo sapiens, UniProt P00734); experiment: Thrombin 1536 HTS Dose Response Confirmation. [Related pubchem assays: 1046 (Thrombin 1536 HTS; hits were confirmed in this assay)]; format: functional
[1] = molecular target: G-protein coupled receptor 55 (Homo sapiens, UniProt Q9Y2T6); experiment: GPR55 agonists via beta-arrestin recruitment, primary screen, imaging, U2OS cells, beta-arrestin-GFP redistribution (AID 1961); format: functional
Sequence of G-protein coupled receptor 55 (Q9Y2T6 whole entry): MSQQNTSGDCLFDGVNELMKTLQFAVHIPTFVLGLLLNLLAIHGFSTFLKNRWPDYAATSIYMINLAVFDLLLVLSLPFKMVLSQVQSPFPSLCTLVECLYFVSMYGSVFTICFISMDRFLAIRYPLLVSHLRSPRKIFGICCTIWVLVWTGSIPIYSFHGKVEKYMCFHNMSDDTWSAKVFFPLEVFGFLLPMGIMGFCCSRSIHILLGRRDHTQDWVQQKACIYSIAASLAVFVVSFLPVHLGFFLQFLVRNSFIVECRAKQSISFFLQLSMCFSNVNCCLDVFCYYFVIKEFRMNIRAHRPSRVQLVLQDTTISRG

[2] = cytotoxicity in HEK-293T cells, dose response, cytotoxicity control for BCR NF-kB inhibitor project, luminescence, B-cell screen hits (AID 489021); format: functional, cell-based;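 also: HEK-293T cells carrying an NF-kB luciferase reporter; cells exposed to compound for about 14 hours before viability readout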
[3] = molecular target: T2, Replicative DNA helicase DnaB (Mycobacterium tuberculosis, UniProt P9WMR3); experiment: DnaB intein splicing inhibitors, dose response, biochemical, cell-free fluorescence (AID 449749); format: functional
T2 sequence (P9WMR3 whole entry): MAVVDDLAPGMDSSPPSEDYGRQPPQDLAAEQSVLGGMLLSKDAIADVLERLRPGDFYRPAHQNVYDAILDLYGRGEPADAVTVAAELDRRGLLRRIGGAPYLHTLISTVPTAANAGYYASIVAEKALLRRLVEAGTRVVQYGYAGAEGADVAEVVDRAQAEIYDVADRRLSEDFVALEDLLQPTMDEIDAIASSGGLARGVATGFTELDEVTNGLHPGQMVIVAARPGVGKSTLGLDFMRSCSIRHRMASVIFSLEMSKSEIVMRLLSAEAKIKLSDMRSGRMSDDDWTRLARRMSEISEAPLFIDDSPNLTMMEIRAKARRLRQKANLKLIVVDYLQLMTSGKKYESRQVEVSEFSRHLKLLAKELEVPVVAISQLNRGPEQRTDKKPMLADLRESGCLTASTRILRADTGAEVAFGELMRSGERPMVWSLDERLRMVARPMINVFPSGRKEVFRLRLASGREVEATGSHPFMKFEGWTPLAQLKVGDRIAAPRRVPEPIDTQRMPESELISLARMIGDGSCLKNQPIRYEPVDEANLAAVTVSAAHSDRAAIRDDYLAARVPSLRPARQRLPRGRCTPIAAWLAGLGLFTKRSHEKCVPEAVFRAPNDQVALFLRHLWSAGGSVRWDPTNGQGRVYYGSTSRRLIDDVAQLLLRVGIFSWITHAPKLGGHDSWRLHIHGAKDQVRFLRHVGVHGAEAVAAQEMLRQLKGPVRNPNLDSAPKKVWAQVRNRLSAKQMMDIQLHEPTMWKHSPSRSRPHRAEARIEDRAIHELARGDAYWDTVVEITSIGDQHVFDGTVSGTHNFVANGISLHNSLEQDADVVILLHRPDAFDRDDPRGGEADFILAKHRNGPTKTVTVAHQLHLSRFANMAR

Protein RecA = molecular target: T3, Protein RecA (Mycobacterium tuberculosis, UniProt P9WHJ3); experiment: Fluorescence Cell-Free Homogeneous Dose Retest to Identify Inhibitors of RecA-Intein Splicing Activity. [Related pubchem assays (depositor defined):AID2097, AID2223, AID489010, AID492950]; format: functional
T3 sequence (P9WHJ3 whole entry): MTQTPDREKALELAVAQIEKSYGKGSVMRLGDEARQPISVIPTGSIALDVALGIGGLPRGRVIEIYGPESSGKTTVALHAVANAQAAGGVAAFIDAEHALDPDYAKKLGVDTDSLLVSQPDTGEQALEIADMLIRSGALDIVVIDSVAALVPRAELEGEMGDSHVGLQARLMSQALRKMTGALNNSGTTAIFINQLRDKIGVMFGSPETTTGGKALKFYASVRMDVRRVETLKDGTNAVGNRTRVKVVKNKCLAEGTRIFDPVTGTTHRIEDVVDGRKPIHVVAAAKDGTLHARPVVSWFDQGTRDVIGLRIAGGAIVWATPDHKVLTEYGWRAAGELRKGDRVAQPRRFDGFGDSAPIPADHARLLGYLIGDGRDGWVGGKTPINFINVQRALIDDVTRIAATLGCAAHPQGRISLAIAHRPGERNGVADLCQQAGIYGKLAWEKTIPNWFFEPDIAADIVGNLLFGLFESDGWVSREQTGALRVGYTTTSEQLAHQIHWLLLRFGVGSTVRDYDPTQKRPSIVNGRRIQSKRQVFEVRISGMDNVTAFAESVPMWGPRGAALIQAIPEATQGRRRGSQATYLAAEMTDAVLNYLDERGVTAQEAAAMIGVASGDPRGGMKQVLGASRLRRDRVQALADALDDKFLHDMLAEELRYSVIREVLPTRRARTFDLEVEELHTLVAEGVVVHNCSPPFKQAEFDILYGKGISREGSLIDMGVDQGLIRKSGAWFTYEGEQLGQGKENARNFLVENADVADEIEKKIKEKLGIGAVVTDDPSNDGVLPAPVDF

[4] = molecular target: Induced myeloid leukemia cell differentiation protein Mcl-1 (Homo sapiens, UniProt Q07820); format: functional
Sequence of Induced myeloid leukemia cell differentiation protein Mcl-1 (Q07820 whole entry): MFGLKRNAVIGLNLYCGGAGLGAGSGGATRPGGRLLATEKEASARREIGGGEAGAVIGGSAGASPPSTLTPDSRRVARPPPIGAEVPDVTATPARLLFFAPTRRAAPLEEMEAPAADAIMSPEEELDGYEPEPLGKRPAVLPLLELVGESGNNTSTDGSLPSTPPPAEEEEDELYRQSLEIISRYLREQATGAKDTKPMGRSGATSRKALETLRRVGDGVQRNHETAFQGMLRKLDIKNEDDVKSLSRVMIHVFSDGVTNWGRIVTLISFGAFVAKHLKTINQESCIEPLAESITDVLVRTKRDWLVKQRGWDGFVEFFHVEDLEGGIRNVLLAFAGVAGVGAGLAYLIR

[5] = molecular target: Neurotensin receptor type 1 (Homo sapiens, UniProt P30989); format: functional;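 also: Image-based confirmatory dose-response assay measuring agonist activity at NTR1; NTR1-expressing U2OS osteosarcoma cells imaged for beta-arrestin GFP spot formation; agonist potency where compounds increase beta-arrestin recruitment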
Sequence of Neurotensin receptor type 1 (P30989 whole entry): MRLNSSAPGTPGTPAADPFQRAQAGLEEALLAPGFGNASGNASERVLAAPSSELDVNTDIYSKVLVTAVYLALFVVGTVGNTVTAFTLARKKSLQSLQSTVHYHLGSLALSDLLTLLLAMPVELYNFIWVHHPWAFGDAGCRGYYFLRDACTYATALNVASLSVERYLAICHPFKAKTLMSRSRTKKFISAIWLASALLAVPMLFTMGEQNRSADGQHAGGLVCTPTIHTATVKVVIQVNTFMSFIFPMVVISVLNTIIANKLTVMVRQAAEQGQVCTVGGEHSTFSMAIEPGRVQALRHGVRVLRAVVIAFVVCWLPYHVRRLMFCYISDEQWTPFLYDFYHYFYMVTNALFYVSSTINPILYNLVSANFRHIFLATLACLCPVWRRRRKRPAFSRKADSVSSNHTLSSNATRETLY

[6] = THP-1 cell cytotoxicity, dose response, cytotoxicity control for non-replicating M. tuberculosis project (AID 489025); format: functional
[7] = HepG2 cell cytotoxicity, dose response, cytotoxicity control for non-replicating M. tuberculosis project (AID 489018); format: functional; conditions: Mycobacterium tuberculosis
cells = format: functional
[8] = molecular target: Glyceraldehyde-3-phosphate dehydrogenase (Homo sapiens, UniProt P04406)
Sequence of Glyceraldehyde-3-phosphate dehydrogenase (P04406 whole entry): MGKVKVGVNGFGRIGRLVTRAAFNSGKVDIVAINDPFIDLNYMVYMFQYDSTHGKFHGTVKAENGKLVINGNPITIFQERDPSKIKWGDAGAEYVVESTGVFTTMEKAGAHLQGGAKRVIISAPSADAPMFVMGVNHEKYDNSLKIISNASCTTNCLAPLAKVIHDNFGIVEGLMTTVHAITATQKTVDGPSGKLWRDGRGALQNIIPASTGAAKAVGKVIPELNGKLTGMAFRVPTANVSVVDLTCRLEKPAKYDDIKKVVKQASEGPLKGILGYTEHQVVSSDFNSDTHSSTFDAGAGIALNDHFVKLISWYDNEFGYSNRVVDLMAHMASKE

[9] = molecular target: T4, Alkaline phosphatase, tissue-nonspecific isozyme (Homo sapiens, UniProt P05186); experiment: human TNAP enzyme inhibitors, SAR follow-up, biochemical, luminescent, dose response (AID 1056)
T4 sequence (P05186 whole entry): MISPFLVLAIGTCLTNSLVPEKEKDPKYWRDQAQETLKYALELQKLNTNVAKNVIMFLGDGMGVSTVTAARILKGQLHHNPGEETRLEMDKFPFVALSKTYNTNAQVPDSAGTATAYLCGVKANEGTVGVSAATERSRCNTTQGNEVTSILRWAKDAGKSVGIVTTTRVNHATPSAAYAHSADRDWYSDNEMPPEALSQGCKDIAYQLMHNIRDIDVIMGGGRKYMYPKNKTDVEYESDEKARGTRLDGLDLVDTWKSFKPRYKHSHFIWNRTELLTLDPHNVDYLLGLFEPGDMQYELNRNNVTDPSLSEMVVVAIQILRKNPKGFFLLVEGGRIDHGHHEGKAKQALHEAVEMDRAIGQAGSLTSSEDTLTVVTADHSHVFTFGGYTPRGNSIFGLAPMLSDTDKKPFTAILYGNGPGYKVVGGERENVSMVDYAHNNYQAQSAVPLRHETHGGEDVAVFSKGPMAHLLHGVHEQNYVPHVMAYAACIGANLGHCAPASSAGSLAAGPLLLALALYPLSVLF

[10] = molecular target: T5, RNA-binding protein pos-1 (Caenorhabditis elegans, UniProt G5EF15); experiment: inhibitors of POS-1/mex-3 RNA binding, dose response, biochemical, fluorescence polarization (AID 1964);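 also: purified POS-1 fused to maltose binding protein made in E. coli; potency of compounds blocking POS-1 binding to fluorescent RNA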
T5 sequence (G5EF15 whole entry): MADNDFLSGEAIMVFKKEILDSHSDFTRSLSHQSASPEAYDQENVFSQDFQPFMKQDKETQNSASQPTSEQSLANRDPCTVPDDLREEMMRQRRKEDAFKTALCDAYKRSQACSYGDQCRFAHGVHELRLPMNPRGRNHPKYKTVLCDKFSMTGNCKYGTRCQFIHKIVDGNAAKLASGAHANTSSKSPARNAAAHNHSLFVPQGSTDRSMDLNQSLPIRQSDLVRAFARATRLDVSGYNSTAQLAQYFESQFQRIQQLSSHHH

[11] = Counterscreen for IDE inhibitors: Luminescence-based cell-based high throughput dose response assay to identify compounds that are cytotoxic to HEK cells. [Related pubchem assays: 434962 (Primary screen (IDE inhibitors in singlicate)), 449730 (Counterscreen (Cytotoxicity in triplicate)), 435028 (Confirmation (IDE inhibitors in triplicate)) …; format: functional; conditions: HEK293
[12] = molecular target: T6, Zinc finger protein mex-5 (Caenorhabditis elegans, UniProt Q9XUB2); experiment: MEX-5/TCR-2 RNA interaction inhibitors, dose response, biochemical, C. elegans, fluorescence polarization (AID 1960)
T6 sequence (Q9XUB2 whole entry): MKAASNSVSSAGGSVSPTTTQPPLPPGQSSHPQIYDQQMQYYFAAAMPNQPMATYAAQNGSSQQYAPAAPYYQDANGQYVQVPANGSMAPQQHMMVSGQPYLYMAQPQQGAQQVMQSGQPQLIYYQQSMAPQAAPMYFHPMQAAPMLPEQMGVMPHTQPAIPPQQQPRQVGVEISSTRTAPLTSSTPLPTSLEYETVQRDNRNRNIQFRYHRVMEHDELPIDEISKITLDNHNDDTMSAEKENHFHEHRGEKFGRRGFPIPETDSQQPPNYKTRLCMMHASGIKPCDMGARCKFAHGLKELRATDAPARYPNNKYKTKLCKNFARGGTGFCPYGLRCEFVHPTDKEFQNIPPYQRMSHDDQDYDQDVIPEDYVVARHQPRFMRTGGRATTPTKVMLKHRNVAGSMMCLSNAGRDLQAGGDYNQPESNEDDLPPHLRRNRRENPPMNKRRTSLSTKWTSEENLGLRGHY

Insulin-degrading enzyme = molecular target: T7, Insulin-degrading enzyme (Homo sapiens, UniProt P14735); experiment: Dose Response: Fluorescence polarization-based cell-based high throughput dose response assay for inhibitors of insulin-degrading enzyme (IDE). [Related pubchem assays: 434962 (Primary screen (IDE inhibitors in singlicate)), 449730 (Counterscreen (Cytotoxicity in triplicate)), 435028 (Confirmation (IDE inhibitors in triplicate)), 434984 (Summary …; format: functional
T7 sequence (P14735 whole entry): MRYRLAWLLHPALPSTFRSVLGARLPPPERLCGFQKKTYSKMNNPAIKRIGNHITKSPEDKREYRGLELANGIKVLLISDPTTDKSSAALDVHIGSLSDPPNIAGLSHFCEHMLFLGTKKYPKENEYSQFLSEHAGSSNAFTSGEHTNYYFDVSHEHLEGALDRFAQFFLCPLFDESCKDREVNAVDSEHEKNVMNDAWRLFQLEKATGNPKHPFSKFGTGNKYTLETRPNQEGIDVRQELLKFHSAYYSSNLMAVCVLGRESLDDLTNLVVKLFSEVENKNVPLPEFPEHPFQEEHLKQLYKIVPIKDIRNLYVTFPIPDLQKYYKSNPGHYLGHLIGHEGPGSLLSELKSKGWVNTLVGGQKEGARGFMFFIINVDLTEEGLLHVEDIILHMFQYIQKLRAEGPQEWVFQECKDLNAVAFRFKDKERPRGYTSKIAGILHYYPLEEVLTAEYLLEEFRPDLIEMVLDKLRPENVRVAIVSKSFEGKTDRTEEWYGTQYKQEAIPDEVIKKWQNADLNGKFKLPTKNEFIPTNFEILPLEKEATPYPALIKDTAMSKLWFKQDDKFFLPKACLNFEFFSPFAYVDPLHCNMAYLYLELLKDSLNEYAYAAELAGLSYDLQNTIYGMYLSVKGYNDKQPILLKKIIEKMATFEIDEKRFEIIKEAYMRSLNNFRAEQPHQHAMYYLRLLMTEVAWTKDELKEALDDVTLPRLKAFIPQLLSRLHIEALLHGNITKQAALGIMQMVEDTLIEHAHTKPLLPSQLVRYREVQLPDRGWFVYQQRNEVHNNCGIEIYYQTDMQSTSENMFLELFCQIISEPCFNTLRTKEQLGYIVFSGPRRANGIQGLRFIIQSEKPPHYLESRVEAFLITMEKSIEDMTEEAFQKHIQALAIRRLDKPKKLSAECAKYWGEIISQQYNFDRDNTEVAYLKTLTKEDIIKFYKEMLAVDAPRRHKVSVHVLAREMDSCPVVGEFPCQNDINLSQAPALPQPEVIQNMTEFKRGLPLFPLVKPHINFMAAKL

[13] = growth suppression of PTEN-null colon cells, dose response, cell-based, HCT116 PTEN knockout (AID 1047); format: functional;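 also: HCT116 colon tumor cells with PTEN knocked out; cells exposed to compound for 60 hours before readout; potency for loss of cell viability measured by luminescence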
[14] = growth suppression of beta-catenin-knockout colon cells, dose response, cell-based, HCT116, human colon tumor (AID 1045); format: functional;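 also: HCT116 colon tumor cells with beta catenin knocked out; cells exposed to compound for 60 hours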

Nc1nc(-c2ccco2)nn1C(=O)CCc1ccccc1
IC50 (Bcl-2-like protein 10): > 100 µM (inactive) | IC50 (Prothrombin): 0.0191 µM (active)

CCOC(=O)N1CCN(C(=O)c2ccc3c(c2)N(Cc2cc(C)ccc2C)C(=O)c2ccccc2[S+]3[O-])CC1 (stereo unspecified)
EC50 [1]: 4.83 µM (active)

COc1ccc(/C=C2/SC(=S)N(CCCC(=O)Nc3cccc(O)c3)C2=O)cc1
IC50 [2]: 55.8 µM (inactive) | AC50 [3]: > 380 µM (inactive) | EC50 (Protein RecA): > 380 µM (inactive)

COc1ccc(OC)c(C2CC(=O)Nc3cc(OC)c(OC)c(OC)c32)c1 (stereo unspecified)
IC50 [2]: > 80 µM (inactive)

CCN(c1ccc(N/C=C2/C(=O)N(Cc3ccc(OC)cc3)C(=O)c3ccccc32)cc1)C(C)C
EC50 [1]: 2.01 µM (active)

CCN(CC)C(=O)CC(c1cc(OC)c(OC)c(OC)c1)c1c(OC)cc(OC)c2c(-c3ccccc3)cc(=O)oc12 (stereo unspecified)
IC50 [4]: 5.26 µM (active) | EC50 [1]: 1.31 µM (active)

CCc1cccc(CC)c1-n1c(SCC(=O)N2CCc3ccccc3C2)nnc1-c1cccnc1
EC50 [5]: 4.16 µM (active)

CCCc1cc(NCCCn2ccnc2)n2nc(C)c(-c3ccccc3)c2n1
CC50 [6]: 36.2 µM (active) | CC50 [7]: > 20 µM (active) | IC50 (cells): 29.1 µM (active)

O=C(O)c1cc(-c2ccc(/C=N/n3cnnc3)o2)ccc1O
IC50 [8]: > 100 µM (not active)

CC1CCN(c2ccc(C(=O)O)cc2N)CC1
IC50 (Bcl-2-like protein 10): 30.5 µM (active)

COC(=O)c1cc(-c2ccc(F)cc2F)[nH]n1
IC50 [8]: > 10 µM (inconclusive) | IC50 [9]: 0.192 µM (active)

COc1ccc(-n2c(C)cc(/C=C3\SC(=S)N(Cc4ccco4)C3=O)c2C)cc1
EC50 [10]: > 300 µM (not active) | IC50 [11]: 38 µM (not active) | EC50 [12]: 121 µM (active) | IC50 (Insulin-degrading enzyme): > 55.9 µM (not active)

CC(=O)Nc1cccc(C(=O)/C=C/c2ccc(Br)cc2)c1
EC50 [13]: 3.77 µM (active) | EC50 [14]: 3.18 µM (active) | EC50 [5]: 13.3 µM (active)

CC(C)(C)OC(=O)N1CCC(NC(=O)c2[nH]cnc2C(=O)N[C@@H](Cc2ccccc2)C(=O)OCc2ccccc2)CC1
EC50 [5]: 32.2 µM (inactive)
